This note sets out measurements from patent US8987250B2 (Gilead Sciences, Inc., priority 2012, dated 2015).

The assay concerns HIV-IIIb. Put plainly: Test A: Antiviral Assay in MT4 Cells. The assay is classed as cell-based. The procedure, abridged: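 Read-out: CellTiter-Glo chemiluminescence after 5-day incubation at 37 °C. Compounds tested as 3-fold serial dilutions (10 concentrations, quadruplicate) in RPMI 1640 with 10% FBS, on MT-4 cells pre-infected at 37 °C with HIV-IIIb at 0.004 m.o.i.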
Setting [1] is: Human immunodeficiency virus 1, IIIB, MT4, 120 h, Table 2, MT-4 cells infected with HIV-IIIb, 5 days of incubation, CellTiter-Glo, read-out: EC50.

Read-outs that look alike come from different tables or passages of the source.

The EC50 is the concentration giving half of the maximal effect. Consider `Cc1cc2nc(-c3ccn4c(C)nc(C)c4c3)sc2c(-c2ccc(Cl)cc2)c1[C@H](OC(C)(C)C)C(=O)O` [Compound 319, (S)-2-tert-butoxy-2-(7-(4-chlorophenyl)-2-(1,3-dimethylimidazo[1,5-a]pyridin-7-yl)-5-methylbenzo[d]thiazol-6-yl)acetic acid], for which, under setting [1], the EC50 came out at 5 nM.

For `Cc1cc2nc(-c3ccc4c(c3)c(N3CCN(C(C)C(F)(F)F)CC3)nn4C)sc2c(-c2ccc(Cl)cc2)c1[C@H](OC(C)(C)C)C(=O)O` (stereo partly drawn) [Compound 493, (2S)-2-tert-butoxy-2-(7-(4-chlorophenyl)-5-methyl-2-(1-methyl-3-(4-((2R/2S)-1,1,1-trifluoropropan-2-yl)piperazin-1-yl)-1H-indazol-5-yl)benzo[d]thiazol-6-yl)acetic acid], under “Table 2, MT-4 cells infected with HIV-IIIb, 5 days of incubation, CellTiter-Glo, read-out: EC50”, the EC50 was determined as 51 nM.

With `Cc1cc2nc(-c3ccc4nn(C)c(C)c4c3)sc2c(-c2ccc(Cl)cc2)c1[C@H](OC(C)(C)C)C(=O)O` [Compound 265, (S)-2-tert-butoxy-2-(7-(4-chlorophenyl)-2-(2,3-dimethyl-2H-indazol-5-yl)-5-methylbenzo[d]thiazol-6-yl)acetic acid], the EC50 under setting [1] is 15 nM.

Take `Cc1cc2nc(-c3ccnc(-c4ccc5c(c4)c(C)nn5C)c3)sc2c(-c2ccc(Cl)cc2)c1[C@H](OC(C)(C)C)C(=O)O` [Compound 443]: under setting [1], the EC50 came to 24 nM.

As to `Cc1cc2nc(-c3ccnc(-c4ccc5c(cnn5C(F)F)c4)c3)sc2c(-c2ccc(Cl)cc2)c1[C@H](OC(C)(C)C)C(=O)O` [Compound 177, (S)-2-tert-butoxy-2-(7-(4-chlorophenyl)-2-(2-(1-(difluoromethyl)-1H-indazol-5-yl)pyridin-4-yl)-5-methylbenzo[d]thiazol-6-yl)acetic acid], the EC50 under setting [1] turned out to be 39 nM.

Turning to `Cc1cc2nc(-c3cccc(-c4ccc5c(cnn5C)c4)n3)sc2c(-c2ccc(Cl)cc2)c1[C@H](OC(C)(C)C)C(=O)O` [Compound 309, (S)-2-tert-butoxy-2-(7-(4-chlorophenyl)-5-methyl-2-(6-(1-methyl-1H-indazol-5-yl)pyridin-2-yl)benzo[d]thiazol-6-yl)acetic acid], under setting [1], the EC50 came to 37 nM.

On to `Cc1cc2nc(-c3ccc4c(c3)C(C)(C)C(=O)N4C)sc2c(-c2ccc(Cl)cc2)c1[C@H](OC(C)(C)C)C(=O)O` [Compound 256, (S)-2-tert-butoxy-2-(7-(4-chlorophenyl)-5-methyl-2-(1,3,3-trimethyl-2-oxoindolin-5-yl)benzo[d]thiazol-6-yl)acetic acid], for which, under setting [1], the concentration for a half-maximal effect (EC50) was found to be 9 nM.

Regarding `Cc1cc2nc(-c3cn(C)c4ncc(F)cc34)sc2c(-c2ccc(Cl)cc2)c1[C@H](OC(C)(C)C)C(=O)O` [Compound 381], the EC50 under setting [1] came to 47 nM.

On to `Cc1cc2nc(-c3ccnc(-c4cnc5c(c4)ncn5C)c3)sc2c(-c2ccc(Cl)cc2)c1[C@H](OC(C)(C)C)C(=O)O` [Compound 405], for which, under setting [1], the EC50 turned out to be 37 nM.

As for `Cc1cc2nc(-c3ccc4c(c3)nc(C)n4C3CC3)sc2c(-c2ccc(Cl)cc2)c1[C@H](OC(C)(C)C)C(=O)O` [Compound 409], the EC50 under setting [1] worked out at 10 nM.

Consider `COc1ncc(-c2cc(-c3nc4cc(C)c([C@H](OC(C)(C)C)C(=O)O)c(-c5ccc(Cl)cc5)c4s3)ccn2)cn1` [Compound 402], for which the EC50 under setting [1] amounted to 35 nM.

In the case of `CC(=O)N(C)c1ccc(-c2cc(-c3nc4cc(C)c([C@H](OC(C)(C)C)C(=O)O)c(-c5ccc(Cl)cc5)c4s3)ccn2)cc1` [Compound 499, (S)-2-(tert-butoxy)-2-(7-(4-chlorophenyl)-5-methyl-2-(2-(4-(N-methylacetamido)phenyl)pyridin-4-yl)benzo[d]thiazol-6-yl)acetic acid], the EC50 under setting [1] was determined as 12 nM.

For the compound `Cc1cc2nc(-c3ccnc(N4CCN(C)C[C@@H]4C)n3)sc2c(-c2ccc(Cl)cc2)c1[C@H](OC(C)(C)C)C(=O)O` [Compound 337], under setting [1], the EC50 is 4 nM.

Regarding `Cc1cc2nc(-c3ccc4c(cnn4C4CCOCC4)c3)sc2c(-c2ccc(Cl)cc2)c1[C@H](OC(C)(C)C)C(=O)O` [Compound 348], the EC50 under setting [1] amounted to 30 nM.

In turn, `Cc1cc2nc(-c3ccnc(-c4ncc5c(n4)c(C)nn5C)c3)sc2c(-c2ccc(Cl)cc2)c1[C@H](OC(C)(C)C)C(=O)O` [Compound 488, (S)-2-tert-butoxy-2-(7-(4-chlorophenyl)-2-(2-(1,3-dimethyl-1H-pyrazolo[4,3-d]pyrimidin-5-yl)pyridin-4-yl)-5-methylbenzo[d]thiazol-6-yl)acetic acid] came in with an EC50 (Human immunodeficiency virus 1, IIIB, MT4, 120 h) of 11 nM.

As to `COc1ccc2ccc(-c3cc(-c4nc5cc(C)c([C@H](OC(C)(C)C)C(=O)O)c(-c6ccc(Cl)cc6)c5s4)ccn3)cc2n1` [Compound 451], the EC50 under setting [1] turned out to be 86 nM.

As to `Cc1cc2nc(-c3ccc4nn(C)c(C)c4n3)sc2c(-c2ccc(Cl)cc2)c1[C@H](OC(C)(C)C)C(=O)O` [Compound 359], under setting [1], the EC50 stood at 21 nM.

As to `Cc1cc2nc(-c3ccnc(N4CCN(C(C)C)CC4)c3)sc2c(-c2ccc(Cl)cc2)c1[C@H](OC(C)(C)C)C(=O)O` [Compound 221, (S)-2-tert-butoxy-2-(7-(4-chlorophenyl)-2-(2-(4-isopropylpiperazin-1-yl)pyridin-4-yl)-5-methylbenzo[d]thiazol-6-yl)acetic acid], the EC50 under setting [1] is 24 nM.

As to `Cc1cc2nc(-c3ccnc(-c4cnc5c(c4)n(C)c(=O)n5C)c3)sc2c(-c2ccc(Cl)cc2)c1[C@H](OC(C)(C)C)C(=O)O` [Compound 454], the concentration for a half-maximal effect (EC50) under setting [1] worked out at 18 nM.

`Cc1cc2nc(-c3ccnc(N4CCN(C5CC5)CC4)n3)sc2c(-c2ccc(Cl)cc2)c1[C@H](OC(C)(C)C)C(=O)O` [Compound 339]: the EC50 under setting [1] worked out at 11 nM.

With `Cc1cc2nc(-c3ccc4c(c3)ncn4C3CCN(C)CC3)sc2c(-c2ccc(Cl)cc2)c1[C@H](OC(C)(C)C)C(=O)O` [Compound 295, (S)-2-(tert-butoxy)-2-(7-(4-chlorophenyl)-5-methyl-2-(1-(1-methylpiperidin-4-yl)-1H-benzo[d]imidazol-5-yl)benzo[d]thiazol-6-yl)acetic acid], under setting [1], the EC50 was 34 nM.

Turning to `Cc1cc2nc(N3CCc4cnccc4C3)sc2c(-c2ccc(Cl)cc2)c1[C@H](OC(C)(C)C)C(=O)O` [Compound 435], under setting [1], the EC50 turned out to be 39 nM.

In the case of `COc1ncccc1-c1cc(-c2nc3cc(C)c([C@H](OC(C)(C)C)C(=O)O)c(-c4ccc(Cl)cc4)c3s2)ccn1` [Compound 233, (S)-2-tert-butoxy-2-(7-(4-chlorophenyl)-2-(2′-methoxy-2,3′-bipyridin-4-yl)-5-methylbenzo[d]thiazol-6-yl)acetic acid], the EC50 under setting [1] came out at 33 nM.

With `Cc1cc2nc(-c3ccnc(-c4ccc5c(c4)c(N)nn5C)c3)sc2c(-c2ccc(Cl)cc2)c1[C@H](OC(C)(C)C)C(=O)O` [Compound 383], under setting [1], the EC50 came out at 18 nM.

On to `Cc1cc2nc(-c3ccnc(-c4cnc(C5CCC5)nc4)c3)sc2c(-c2ccc(Cl)cc2)c1[C@H](OC(C)(C)C)C(=O)O` [Compound 138], for which, where the note is “Human immunodeficiency virus 1, IIIB, MT4, 120 h, Table 1, MT-4 cells infected with HIV-IIIb, 5 days of incubation, CellTiter-Glo, read-out: EC50”, the EC50 was 65 nM.

For the compound `Cc1cc2nc(-c3nccc(-c4ccc5c(cnn5C)c4)n3)sc2c(-c2ccc(Cl)cc2)c1[C@H](OC(C)(C)C)C(=O)O` [Compound 357], under setting [1], the EC50 is 12 nM.

Turning to `Cc1cc2nc(-c3cccc(-n4ccc(=O)[nH]c4=O)c3)sc2c(-c2ccc(Cl)cc2)c1[C@H](OC(C)(C)C)C(=O)O` [Compound 229, (S)-2-tert-butoxy-2-(7-(4-chlorophenyl)-2-(3-(2,4-dioxo-3,4-dihydropyrimidin-1(2H)-yl)phenyl)-5-methylbenzo[d]thiazol-6-yl)acetic acid], the EC50 under setting [1] came to 1740 nM.

Regarding `Cc1cc2nc(-c3ccc4nc(C)n([C@H]5CCN(C)C5)c4c3)sc2c(-c2ccc(Cl)cc2)c1[C@H](OC(C)(C)C)C(=O)O` [Compound 200, (S)-2-tert-butoxy-2-(7-(4-chlorophenyl)-5-methyl-2-(2-methyl-1-((S)-1-methylpyrrolidin-3-yl)-1H-benzo[d]imidazol-6-yl)benzo[d]thiazol-6-yl)acetic acid], the EC50 under setting [1] was determined as 14 nM.

As for `COc1cc(-c2cc(-c3nc4cc(C)c([C@H](OC(C)(C)C)C(=O)O)c(-c5ccc(Cl)cc5)c4s3)ccn2)cnc1OC` [Compound 345], under setting [1], the EC50 was 28 nM.

Consider `Cc1cc2nc(-c3cnc4c(c3)c(-c3cccnc3)cn4C)sc2c(-c2ccc(Cl)cc2)c1[C@H](OC(C)(C)C)C(=O)O` [Compound 249, (S)-2-tert-butoxy-2-(7-(4-chlorophenyl)-5-methyl-2-(1-methyl-3-(pyridin-3-yl)-1H-pyrrolo[2,3-b]pyridin-5-yl)benzo[d]thiazol-6-yl)acetic acid], for which the EC50 under setting [1] worked out at 7 nM.

Turning to `Cc1cc2nc(-c3cc(-c4ccc5c(cnn5C)c4)cnc3C)sc2c(-c2ccc(Cl)cc2)c1[C@H](OC(C)(C)C)C(=O)O` [Compound 306, (S)-2-tert-butoxy-2-(7-(4-chlorophenyl)-5-methyl-2-(2-methyl-5-(1-methyl-1H-indazol-5-yl)pyridin-3-yl)benzo[d]thiazol-6-yl)acetic acid], the EC50 under setting [1] came to 14 nM.

On to `Cc1cc2nc(-c3ccnc(N4CCN(C(=O)N(C)C)CC4)n3)sc2c(-c2ccc(Cl)cc2)c1[C@H](OC(C)(C)C)C(=O)O` [Compound 472, (S)-2-tert-butoxy-2-(7-(4-chlorophenyl)-2-(2-(4-(dimethylcarbamoyl)piperazin-1-yl)pyrimidin-4-yl)-5-methylbenzo[d]thiazol-6-yl)acetic acid], for which the EC50 under setting [1] came to 4 nM.

On to `Cc1cc2nc(N3CCCC3)sc2c(-c2ccc3c4c(ccnc24)CCO3)c1[C@H](OC(C)(C)C)C(=O)O` (atropisomer, axis not shown) [Compound 51, (S)-2-tert-butoxy-2-((R)-7-(2,3-dihydropyrano[4,3,2-de]quinolin-7-yl)-5-methyl-2-(pyrrolidin-1-yl)benzo[d]thiazol-6-yl)acetic acid], for which, under “Table 1, MT-4 cells infected with HIV-IIIb, 5 days of incubation, CellTiter-Glo, read-out: EC50”, the EC50 is 5250 nM.

As to `Cc1cc2nc(-c3ccc4c(c3)ncn4C)sc2c(-c2ccc(Cl)cc2)c1[C@H](OC(C)(C)C)C(=O)O` [Compound 415], under setting [1], the EC50 came to 10 nM.
